One test concerns the target T1, LYP (Homo sapiens, UniProt Q9Y2R2).
T1 sequence (Q9Y2R2 1-807): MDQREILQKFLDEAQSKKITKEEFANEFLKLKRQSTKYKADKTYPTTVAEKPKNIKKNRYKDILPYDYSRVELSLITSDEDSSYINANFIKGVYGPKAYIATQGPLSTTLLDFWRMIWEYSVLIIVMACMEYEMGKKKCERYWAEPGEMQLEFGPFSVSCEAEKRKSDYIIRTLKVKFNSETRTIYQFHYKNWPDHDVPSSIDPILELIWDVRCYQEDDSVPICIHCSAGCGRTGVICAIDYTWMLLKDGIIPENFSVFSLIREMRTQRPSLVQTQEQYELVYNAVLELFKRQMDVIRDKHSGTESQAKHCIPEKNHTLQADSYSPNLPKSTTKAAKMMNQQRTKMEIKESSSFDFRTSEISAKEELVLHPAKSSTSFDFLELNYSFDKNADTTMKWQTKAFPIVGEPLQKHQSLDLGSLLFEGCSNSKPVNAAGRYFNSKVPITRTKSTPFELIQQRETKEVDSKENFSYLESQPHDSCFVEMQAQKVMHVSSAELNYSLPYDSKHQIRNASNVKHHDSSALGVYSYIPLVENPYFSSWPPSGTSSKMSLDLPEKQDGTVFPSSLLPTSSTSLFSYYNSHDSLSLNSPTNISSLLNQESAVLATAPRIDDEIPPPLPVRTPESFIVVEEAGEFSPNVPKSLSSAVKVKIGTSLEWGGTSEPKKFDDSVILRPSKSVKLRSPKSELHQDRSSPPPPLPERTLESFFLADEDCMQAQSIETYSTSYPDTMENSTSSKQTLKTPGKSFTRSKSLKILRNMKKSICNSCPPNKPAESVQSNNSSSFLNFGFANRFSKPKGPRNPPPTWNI
Put plainly: Time-dependent IC50 determination, LYP (10 min preincubation, pNPP). The test is classed as biochemical. How it is done: (§1) During active compound characterization, other common PTPs, including SHP1. PTP1B, and LYP, were counter-screened. Compounds were incubated for 10 minutes with the corresponding PTP (4 μM) before being diluted 50-fold into a solution containing excess substrate para-nitrophenyl phosphate (10 mM) to monitor the remaining activity. […] This was not expected, given their high sequence and structural homology. […] While unexpected, the lower sequence homology provides a rationale for the observed selectivity.
(§2) Inhibitors were evaluated for their ability to inhibit the reaction catalyzed by SHP2 using para-nitrophenyl phosphate (pNPP) as a substrate at pH 7 and 25° C. The reaction was started in a clear flat-bottom 96-well plate (Corning Costar Assay Plate #9017) by the addition of 25 μL of 4 μM PTP in DMG buffer to 25 μl of 2× inhibitor (final concentrations=2 μM PTP, 100-0 μM inhibitor). Reactions were incubated for 1 or 10 minutes before transferring 4 μL into 196 μL of 10.1 mM pNPP in DMG buffer (final concentration=40 nM PTP, 10 mM pNPP). These wells were then allowed to react for 10, 45, or 3 minutes for SHP1 and SHP2, LYP, PTP1B respectively before quenching with 50 μL of 5 M NaOH. Plates were then read for absorbance at 405 nm using a CLARIOstar^Plus plate reader (BMG Labetch). […]

In a further test the target is T2, PTP1B (Homo sapiens, UniProt P18031).
T2 sequence (P18031 1-435): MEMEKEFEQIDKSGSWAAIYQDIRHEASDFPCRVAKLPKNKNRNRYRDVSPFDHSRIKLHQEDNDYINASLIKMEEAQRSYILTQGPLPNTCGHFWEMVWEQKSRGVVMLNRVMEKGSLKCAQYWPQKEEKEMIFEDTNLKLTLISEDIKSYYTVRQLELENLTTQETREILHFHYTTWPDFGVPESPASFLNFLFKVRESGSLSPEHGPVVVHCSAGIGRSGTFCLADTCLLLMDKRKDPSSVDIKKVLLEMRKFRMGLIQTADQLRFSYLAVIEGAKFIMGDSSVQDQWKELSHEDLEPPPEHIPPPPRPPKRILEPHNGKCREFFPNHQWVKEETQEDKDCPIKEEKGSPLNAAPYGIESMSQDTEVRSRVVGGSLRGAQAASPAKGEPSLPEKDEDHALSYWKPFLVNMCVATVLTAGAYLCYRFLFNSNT
In words: Time-dependent IC50 determination, PTP1B (10 min preincubation, pNPP). The test is classed as biochemical. How it is done: as §1, §2

pIC50: −log10 of the molar value.

As for `C=C1C(=O)[C@@]2(C(=O)N3CCN(c4ccc(I)cc4)CC3)CC(=O)C[C@@H]1C2` [Compound 37], the pIC50 (as a rule, −log10 of the IC50, conventionally taken in molar units) at LYP (LYP, 10 minutes preincubation, curve not completed (solubility), extrapolated, read-out: 10 Minute IC50) was 3.31; at PTP1B (PTP1B, 10 minutes preincubation, curve not completed (solubility), extrapolated, read-out: 10 Minute IC50), 3.17. Moreover, the results for the “Fold-Selective (10 Minutes)” value on LYP (SHP2 over LYP) and at PTP1B (SHP2 over PTP1B) were 31.12 and 44.56, respectively.

Values taken from US20260327239A1, “COMPOUNDS FOR COVALENT INHIBITION OF SHP2” (Purdue Research Foundation, priority 2023, published 2026).
